Consider 42 compounds from patent US20260132129A1 (Genesis Therapeutics, Inc., priority 2022, published 2026).

By IC50 is commonly meant the point on the concentration scale where inhibition reaches its midpoint.

The structures appear in SMILES notation. Where a name gives a salt, the structure may show the parent alone.

For the experiment, the target named is T1, PI3Kα H1047R (T47D cells) (Homo sapiens, UniProt P42336, H1047R).
T1 construct: endogenous in cells; host or cells: T47D cells
Briefly: PI3Kα cellular assay: pAKT HTRF in T47D cells after EGF stimulation. The class given is cell-based. The note with it: for IC50: T47D cells (PI3Kα H1047R), pAKT S473 HTRF, 1 hr compound, 20 ng/ml EGF 10 min. The procedure, abridged:
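pAKT read by HTRF in lysates of EGF-stimulated (20 ng/mL, 10 min) T47D H1047R cells. Before stimulation, serum-starved cells (16 h) received compound for 1 h at 37 °C, dosed from 10,000 nM down to 0.5 nM in 3-fold steps.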

T1 sequence (P42336 whole entry H1047R): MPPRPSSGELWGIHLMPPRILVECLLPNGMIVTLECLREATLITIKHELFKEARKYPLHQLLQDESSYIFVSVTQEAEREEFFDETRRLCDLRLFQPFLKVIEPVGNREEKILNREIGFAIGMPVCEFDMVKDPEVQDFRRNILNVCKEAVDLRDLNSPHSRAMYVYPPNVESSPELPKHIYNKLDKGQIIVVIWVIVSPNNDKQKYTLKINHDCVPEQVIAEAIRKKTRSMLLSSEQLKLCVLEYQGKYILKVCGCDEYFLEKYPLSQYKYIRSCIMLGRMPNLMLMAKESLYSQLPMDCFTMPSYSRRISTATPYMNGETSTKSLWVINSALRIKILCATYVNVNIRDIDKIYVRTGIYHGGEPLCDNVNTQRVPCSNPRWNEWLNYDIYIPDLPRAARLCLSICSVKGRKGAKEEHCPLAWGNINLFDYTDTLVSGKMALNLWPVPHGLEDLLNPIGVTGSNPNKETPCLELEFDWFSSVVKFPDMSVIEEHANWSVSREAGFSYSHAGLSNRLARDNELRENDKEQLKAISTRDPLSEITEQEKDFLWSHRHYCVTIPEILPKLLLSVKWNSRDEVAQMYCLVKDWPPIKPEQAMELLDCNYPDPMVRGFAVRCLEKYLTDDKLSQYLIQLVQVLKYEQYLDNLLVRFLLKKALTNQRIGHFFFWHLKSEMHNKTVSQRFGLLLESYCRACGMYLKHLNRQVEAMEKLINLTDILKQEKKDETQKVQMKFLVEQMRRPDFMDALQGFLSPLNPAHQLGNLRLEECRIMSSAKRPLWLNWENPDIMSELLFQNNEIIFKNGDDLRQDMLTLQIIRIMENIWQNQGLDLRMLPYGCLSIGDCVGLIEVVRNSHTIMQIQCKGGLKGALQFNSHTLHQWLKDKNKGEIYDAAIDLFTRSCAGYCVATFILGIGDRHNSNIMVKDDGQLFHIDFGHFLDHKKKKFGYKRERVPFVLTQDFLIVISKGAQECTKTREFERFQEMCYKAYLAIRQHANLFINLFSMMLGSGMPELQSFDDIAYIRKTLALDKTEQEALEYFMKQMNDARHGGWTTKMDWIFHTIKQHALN
T1 sequence (P27986 whole entry partner): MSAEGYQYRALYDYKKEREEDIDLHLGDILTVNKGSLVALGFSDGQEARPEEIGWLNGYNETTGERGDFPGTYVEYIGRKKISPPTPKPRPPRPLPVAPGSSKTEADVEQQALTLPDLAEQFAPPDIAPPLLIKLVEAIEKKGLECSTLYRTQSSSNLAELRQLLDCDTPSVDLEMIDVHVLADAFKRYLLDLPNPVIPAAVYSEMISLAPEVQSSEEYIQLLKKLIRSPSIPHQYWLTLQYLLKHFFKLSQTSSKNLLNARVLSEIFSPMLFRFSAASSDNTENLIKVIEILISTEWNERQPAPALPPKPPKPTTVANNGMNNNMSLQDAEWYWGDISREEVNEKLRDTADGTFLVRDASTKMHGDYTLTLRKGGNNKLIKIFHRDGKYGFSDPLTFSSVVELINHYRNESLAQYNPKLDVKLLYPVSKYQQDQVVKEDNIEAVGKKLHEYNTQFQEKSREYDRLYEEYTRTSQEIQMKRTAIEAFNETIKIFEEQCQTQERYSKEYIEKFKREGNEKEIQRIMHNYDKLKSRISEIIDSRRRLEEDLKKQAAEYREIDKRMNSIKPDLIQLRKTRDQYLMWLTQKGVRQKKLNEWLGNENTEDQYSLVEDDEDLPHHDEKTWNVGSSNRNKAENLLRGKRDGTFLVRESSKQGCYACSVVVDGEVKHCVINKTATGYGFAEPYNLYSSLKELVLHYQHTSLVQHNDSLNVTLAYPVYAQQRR

For `COc1cc(-c2cc(=O)n3cc(C)cc(C(C)Nc4ccccc4C(=O)O)c3n2)cc(S(N)(=O)=O)c1` (centres unmarked) [Compound 355], the IC50 is 500 to 2000 nM and the “T47D pAKT S473 HTRF IC50 (H1047R): T47D (H1047R) selectivity over SKBR3 (WT)” value is on record as “B (B denotes 20-fold≥value>5-fold)”.
For `CNC(=O)c1ccc(-c2cc(=O)n3cc(C)cc(C(C)Nc4ccccc4C(=O)O)c3n2)c(C)c1` (centres unmarked) [Compound 356] the same measures were more than 2000 nM and “C (C denotes ≤5-fold)”.
For `Cc1cc(C(C)Nc2cnncc2C(=O)O)c2nc(N3CCOCC3)cc(=O)n2c1` (centres unmarked) [Compound 357] the same measures were more than 2000 nM and “C (C denotes ≤5-fold)”.
For `Cc1cc(C(C)Nc2ccnnc2C(=O)O)c2nc(N3CCOCC3)cc(=O)n2c1` (centres unmarked) [Compound 358] the same measures were more than 2000 nM and “C (C denotes ≤5-fold)”.
Turning to `Cc1cc([C@@H](C)Nc2ccccc2C(=O)O)c2nc(N3CCC(C)CC3)cc(=O)n2c1` [Compound 359], the half-maximal inhibitory concentration (IC50) is less than 100 nM and the “T47D pAKT S473 HTRF IC50 (H1047R): T47D (H1047R) selectivity over SKBR3 (WT)” value is given as “A (A denotes >20-fold)”.
For `Cc1cc([C@H](C)Nc2ccccc2C(=O)O)c2nc(N3CCC(C)CC3)cc(=O)n2c1` [Compound 360], in that order: more than 2000 nM and “C (C denotes ≤5-fold)”.
For `Cc1cc([C@@H](C)Nc2ccccc2C(=O)O)c2nc(N3CCC(C)(C)CC3)cc(=O)n2c1` [Compound 361] the same measures were less than 100 nM and “A (A denotes >20-fold)”.
For `Cc1cc([C@H](C)Nc2ccccc2C(=O)O)c2nc(N3CCC(C)(C)CC3)cc(=O)n2c1` [Compound 362], in that order: more than 2000 nM and “C (C denotes ≤5-fold)”.
On to `Cc1cc(C(C)Nc2ccccc2C(=O)O)c2nc(N3CC(Cl)C3)cc(=O)n2c1` (centres unmarked) [Compound 363], for which the IC50 fell in the range of 100 to 500 nM and the “T47D pAKT S473 HTRF IC50 (H1047R): T47D (H1047R) selectivity over SKBR3 (WT)” value is “A (A denotes >20-fold)”.
For `Cc1cc([C@@H](C)Nc2ccccc2C(=O)O)c2nc(N3CC(Cl)C3)cc(=O)n2c1` [Compound 364], in that order: less than 100 nM and “A (A denotes >20-fold)”.
For `Cc1cc([C@H](C)Nc2ccccc2C(=O)O)c2nc(N3CC(Cl)C3)cc(=O)n2c1` [Compound 365], in that order: more than 2000 nM and “C (C denotes ≤5-fold)”.
As for `Cc1cc(C(C)Nc2ccccc2C(=O)O)c2nc(Nc3ccc(C(=O)O)cc3)cc(=O)n2c1` (centres unmarked) [Compound 369], the IC50 is more than 2000 nM and the “T47D pAKT S473 HTRF IC50 (H1047R): T47D (H1047R) selectivity over SKBR3 (WT)” value is “C (C denotes ≤5-fold)”.
For `Cc1cc(C(C)Nc2ccccc2C(=O)O)c2nc(N3CCO[C@H](C)C3)cc(=O)n2c1` (some centres unmarked) [Compound 372] the same measures were 100 to 500 nM and “B (B denotes 20-fold≥value>5-fold)”.
Regarding `Cc1cc([C@H](C)Nc2ccccc2C(=O)O)c2nc(N3CCO[C@H](C)C3)cc(=O)n2c1` [Compound 374], the half-inhibitory concentration (IC50) was less than 100 nM and the “T47D pAKT S473 HTRF IC50 (H1047R): T47D (H1047R) selectivity over SKBR3 (WT)” value is “A (A denotes >20-fold)”.
On to `Cc1cc([C@@H](C)Nc2cnncc2C(=O)O)c2nc(N3CCOCC3)cc(=O)n2c1` [Compound 375], for which the IC50 was more than 2000 nM and the “T47D pAKT S473 HTRF IC50 (H1047R): T47D (H1047R) selectivity over SKBR3 (WT)” value is reported as “C (C denotes ≤5-fold)”.
For `Cc1cc([C@H](C)Nc2cnncc2C(=O)O)c2nc(N3CCOCC3)cc(=O)n2c1` [Compound 376] the same measures were more than 2000 nM and “C (C denotes ≤5-fold)”.
For `Cc1cc([C@@H](C)Nc2ccnnc2C(=O)O)c2nc(N3CCOCC3)cc(=O)n2c1` [Compound 377] the same measures were more than 2000 nM and “C (C denotes ≤5-fold)”.
For `Cc1cc([C@H](C)Nc2ccnnc2C(=O)O)c2nc(N3CCOCC3)cc(=O)n2c1` [Compound 378], in that order: more than 2000 nM and “C (C denotes ≤5-fold)”.
Take `Cc1cc(C(C)Nc2c(C(=O)O)cnn2C)c2nc(N3CCOCC3)cc(=O)n2c1` (centres unmarked) [Compound 379]: the concentration for half-maximal inhibition (IC50) is more than 2000 nM and the “T47D pAKT S473 HTRF IC50 (H1047R): T47D (H1047R) selectivity over SKBR3 (WT)” value is “C (C denotes ≤5-fold)”.
Regarding `Cc1cc(C(C)Nc2ccccc2C(=O)O)c2nc(-c3cc[nH]c(=O)c3)cc(=O)n2c1` (centres unmarked) [Compound 380], the IC50 is more than 2000 nM and the “T47D pAKT S473 HTRF IC50 (H1047R): T47D (H1047R) selectivity over SKBR3 (WT)” value is “C (C denotes ≤5-fold)”.
For `Cc1cc([C@@H](C)Nc2c(C(=O)O)cnn2C)c2nc(N3CCOCC3)cc(=O)n2c1` [Compound 390] the same measures were more than 2000 nM and “C (C denotes ≤5-fold)”.
For `Cc1cc([C@@H](C)Nc2ccccc2C(=O)O)c2nc(N3CCN(C)CC3)cc(=O)n2c1` [Compound 394] the same measures were more than 2000 nM and “C (C denotes ≤5-fold)”.
For `Cc1cc([C@H](C)Nc2ccccc2C(=O)O)c2nc(N3Cc4ccccc4C3)cc(=O)n2c1` [Compound 403], in that order: more than 2000 nM and “C (C denotes ≤5-fold)”.
Take `Cc1cc(C(C)Nc2ccccc2C(=O)O)c2nc(-c3cccnc3)cc(=O)n2c1` (centres unmarked) [Compound 416, 2-((1-(7-methyl-4-oxo-2-(pyridin-3-yl)-4H-pyrido[1,2-a]pyrimidin-9-yl)ethyl)amino)benzoic acid trifluoroacetate]: the 50% inhibitory concentration (IC50) lay in the range of 100 to 500 nM and the “T47D pAKT S473 HTRF IC50 (H1047R): T47D (H1047R) selectivity over SKBR3 (WT)” value was “A (A denotes >20-fold)”.
For the compound `Cc1cc([C@H](C)Nc2ccccc2C(=O)O)c2nc(-c3ccccc3)cc(=O)n2c1` [Compound 423], the “T47D pAKT S473 HTRF IC50 (H1047R): T47D (H1047R) selectivity over SKBR3 (WT)” value is reported as “C (C denotes ≤5-fold)”.
On the same count and under the same terms, in the case of `Cc1cc([C@H](C)Nc2ccccc2C(=O)O)c2nc(N3CCC(C)(C)CC3)cc(=O)n2c1` [Compound 432] it was “C (C denotes ≤5-fold)”.
On the same count and under the same terms, in the case of `Cc1cc(C(C)Nc2ccccc2C(=O)O)c2nc(N3CCC(NS(C)(=O)=O)CC3)cc(=O)n2c1` (centres unmarked) [Compound 433] it was “C (C denotes ≤5-fold)”; in that of `Cc1cc(C(C)Nc2ccccc2C(=O)O)c2nc(N3CCC(NS(C)(=O)=O)CC3)cc(=O)n2c1` (centres unmarked) [Compound 434], “C (C denotes ≤5-fold)”.
On to `Cc1cc(C(C)Nc2ccccc2C(N)=O)c2nc(-c3ccncc3)cc(=O)n2c1` (centres unmarked) [Compound 438], for which the IC50 was more than 2000 nM and the “T47D pAKT S473 HTRF IC50 (H1047R): T47D (H1047R) selectivity over SKBR3 (WT)” value is “C (C denotes ≤5-fold)”.
As for `Cc1cc([C@@H](C)Nc2ccccc2C(=O)O)c2nc(N3CC[Si](C)(C)CC3)cc(=O)n2c1` [Compound 446], the IC50 was more than 2000 nM and the “T47D pAKT S473 HTRF IC50 (H1047R): T47D (H1047R) selectivity over SKBR3 (WT)” value is listed as “C (C denotes ≤5-fold)”.
For `Cc1cc(C(C)Nc2ccccc2C(=O)O)c2nc(-c3ccc4c(c3)c(N(C)C)nn4C)cc(=O)n2c1` (centres unmarked) [Compound 457] the same measures were less than 100 nM and “A (A denotes >20-fold)”.
For `Cc1cc(C(C)Nc2ccccc2C(=O)O)c2nc(-c3ccnnc3)cc(=O)n2c1` (centres unmarked) [Compound 460] the same measures were 500 to 2000 nM and “B (B denotes 20-fold≥value>5-fold)”.
For `Cc1cc([C@@H](C)Nc2ccccc2C(=O)O)c2nc(-c3cc[nH]c(=O)c3)cc(=O)n2c1` [Compound 461] the same measures were more than 2000 nM and “C (C denotes ≤5-fold)”.
On to `Cc1cc([C@H](C)Nc2ccccc2C(=O)O)c2nc(-c3cc[nH]c(=O)c3)cc(=O)n2c1` [Compound 462], for which the IC50 was more than 2000 nM and the “T47D pAKT S473 HTRF IC50 (H1047R): T47D (H1047R) selectivity over SKBR3 (WT)” value was “C (C denotes ≤5-fold)”.
`Cc1cc(C(C)Nc2ccccc2C(=O)O)c2nc(-c3ccc4c(c3)NC(CO)N4)cc(=O)n2c1` (centres unmarked) [Compound 466]: the 50% inhibitory concentration (IC50) is more than 2000 nM and the “T47D pAKT S473 HTRF IC50 (H1047R): T47D (H1047R) selectivity over SKBR3 (WT)” value is “C (C denotes ≤5-fold)”.
For `Cc1cc(C(C)Nc2ccccc2C(=O)O)c2nc(N3CCN(c4ccncc4)CC3)cc(=O)n2c1` (centres unmarked) [Compound 467] the same measures were more than 2000 nM and “C (C denotes ≤5-fold)”.
For `Cc1cc(C(C)Nc2ccccc2C(=O)O)c2nc(N3CCC4(CC3)COC4)cc(=O)n2c1` (centres unmarked) [Compound 471] the same measures were 500 to 2000 nM and “B (B denotes 20-fold≥value>5-fold)”.
For `Cc1cc(C(C)Nc2ccccc2C(=O)O)c2nc(N3CCC(C)(O)CC3)cc(=O)n2c1` (centres unmarked) [Compound 473] the same measures were more than 2000 nM and “C (C denotes ≤5-fold)”.
As to `Cc1cc([C@H](C)Nc2ccccc2C(=O)O)c2nc(-c3ccc4c(c3)CC(=O)N4)cc(=O)n2c1` [Compound 478], the concentration for half-maximal inhibition (IC50) lay within 100 to 500 nM and the “T47D pAKT S473 HTRF IC50 (H1047R): T47D (H1047R) selectivity over SKBR3 (WT)” value was “A (A denotes >20-fold)”.
For `Cc1cc([C@@H](C)Nc2ccccc2C(=O)O)c2cc(-c3ccncn3)cc(=O)n2c1` [Compound 481] the same measures were more than 2000 nM and “C (C denotes ≤5-fold)”.
For `Cc1cc([C@H](C)Nc2ccccc2C(=O)O)c2cc(-c3ccncn3)cc(=O)n2c1` [Compound 482], in that order: 500 to 2000 nM and “B (B denotes 20-fold≥value>5-fold)”.
For `Cc1cc([C@@H](C)Nc2ccccc2C(=O)O)c2cc(-c3ccnnc3)cc(=O)n2c1` [Compound 483], in that order: 500 to 2000 nM and “B (B denotes 20-fold≥value>5-fold)”.
